Measurements taken from patent US8598115B2, “Cyclic compound and salt thereof” (Astellas Pharma Inc., priority 2008, dated 2013).
Square brackets hold non-standard residues; d marks the D form. Peptide text beside a SMILES is read from it. Orn(N5-OH,N5-Ac) = CC(=O)N(O)CCC[C@H](N)C(=O)O

Tested on: Aspergillus fumigatus FP1305
Test: Antifungal activity, broth microdilution method
Format: cell-based
Protocol: Antifungal activities for test fungi shown in Table 15 was determined by a broth microdilution method (Hikaru Kume and Toshikazu Yamazaki, Clinical Microbiology, Vol. 21, No. 5, pp. 573-580, 1994).

SMILES: CC(=O)N([O-])CCC[C@@H]1NC(=O)CNC(=O)CNC(=O)CNC(=O)[C@H](CCCN([O-])C(C)=O)NC(=O)[C@H](CCCN([O-])C(C)=O)NC1=O.[Fe+3] [ferrichrome, Ferrichrome] (cyclo(GGG[Orn(N5-OH,N5-Ac)][Orn(N5-OH,N5-Ac)][Orn(N5-OH,N5-Ac)]))
- MEC (minimum effective concentration): ≥ 50 µg/mL
